Data from patent publication US20260207570A1, “OPTIMIZED DOSING OF LERIGLITAZONE” (MINORYX THERAPEUTICS S.L., priority 2022, published 2026).

What was measured:
CYP3A4 [1] = molecular target: T1, CYP3A4 (Homo sapiens, UniProt P08684); assay: CYP3A4 contribution to clearance (fm, CLint) for the PBPK model
From the text: (§1) CYP2C8 and CYP3A4 were identified in vitro as the major contributing enzymes of leriglitazone with CYP2C8 mostly responsible for the formation of the main metabolite M3. Kinetic parameters of human CYP2C8 and CYP3A4 mediated metabolism of leriglitazone were studied in in vitro studies using recombinant CYP3A4 and CYP2C8 enzymes (ADMESCOPE, Finland). […] As the disappearance of leriglitazone was very slow especially at high initial concentrations, the accuracy of the fit was not as good as based on M3 formation. […] Thus, it was not possible to fit the kinetic parameters Km and Vmax.

[2] = Adult PBPK model (Simcyp) development, simulation and verification; parameters: species or system human
From the text: A PBPK model for leriglitazone HCl was developed with the Simcyp Population-Based Simulator Version 17 release 1.
A first-order absorption model with inputs based on clinical data was used to describe the absorption kinetics of the drug. Dose-dependent ka values were estimated from phase 1 SAD data and were incorporated to account for the less than dose proportional increase in the Cmax of leriglitazone as well as the negative food effect on the Cmax (Table 2).
A global scalar of 0.7 was applied to match the estimated value. The full PBPK model was applied in all simulations of the plasma concentration-time profiles of the drug in order to recover the shape of the concentration-time profiles.
Predictions of plasma concentration-time profiles and clearance were performed in the Simcyp Simulator using the default Sim-Healthy volunteer population, whose parameter values have been described previously. Howgate, E. M., et al., Xenobiotica Fate Foreign Compd. Biol. Syst. 36, 473-497 (2006); Inoue, S. et al., Xenobiotica Fate Foreign Compd. Biol. Syst. 36, 499-513 (2006). The trial design used for simulation of the plasma concentration-time profile of a single dose of leriglitazone in fasted and fed subjects was based on the phase 1 SAD results. Concentration-time profiles, using 10 virtual trials of 6 subjects (all male) aged 21 to 50 years receiving a single oral dose of 30, 90 or 270 mg under the fasted conditions and a single oral dose of 90 or 270 mg under fed conditions were simulated over a duration of 144 hours. Visual checks of the predicted concentration-time profiles were performed and the key PK parameters (AUC, Cmax and Tmax) were compared to those observed in the phase 1 study (Table 8).
The PBPK model was verified by comparing the predicted concentration-time profiles with the observed phase 1 MAD data. The trial design used for simulation was based on multiple doses of 135 mg or 270 mg in fed healthy subjects. […]

[3] = Single dose neuro-pk study in rats; assay type: in vivo; conditions: rat
Protocol: The ratio of unbound leriglitazone concentration in brain to unbound concentration in plasma (Kpu,u; Cb,u/Cp,u) was calculated dividing the unbound CSF Cmax by the unbound plasma Cmax. Fractions unbound in plasma (fu,p) to obtain the unbound Cmax values were already reported. Rodriguez-Pascau, L. et al., Sci. Transl. Med. 13, eabc0555 (2021).
In a single dose neuro-pk study in rats, at the efficacious dose of 17 mg/kg, the unbound brain concentration of leriglitazone was 175 ng/ml similar to the measured CSF concentration of 274 ng/ml (FIG. 7). Given the validity of CSF as a surrogate marker for brain unbound concentration was proven in rats, CSF levels of leriglitazone were measured in Phase 1 study and confirmed to be similar as in rodents. Unbound brain to plasma ratio (Kpu,u) of leriglitazone as a measure of brain distribution of free drug was 0.55 in humans and 0.25 in rats (Table 7).

[4] = PBPK model input parameters: blood and plasma binding; assay type: in vitro ADME, human
CYP2C8 = molecular target: T2, CYP2C8 (Homo sapiens, UniProt P10632); assay: Metabolism kinetics with recombinant CYP2C8; assay type: in vitro ADME; conditions: therapeutic range, up to 30 μM initial incubation concentration
T2 sequence (P10632 1-490): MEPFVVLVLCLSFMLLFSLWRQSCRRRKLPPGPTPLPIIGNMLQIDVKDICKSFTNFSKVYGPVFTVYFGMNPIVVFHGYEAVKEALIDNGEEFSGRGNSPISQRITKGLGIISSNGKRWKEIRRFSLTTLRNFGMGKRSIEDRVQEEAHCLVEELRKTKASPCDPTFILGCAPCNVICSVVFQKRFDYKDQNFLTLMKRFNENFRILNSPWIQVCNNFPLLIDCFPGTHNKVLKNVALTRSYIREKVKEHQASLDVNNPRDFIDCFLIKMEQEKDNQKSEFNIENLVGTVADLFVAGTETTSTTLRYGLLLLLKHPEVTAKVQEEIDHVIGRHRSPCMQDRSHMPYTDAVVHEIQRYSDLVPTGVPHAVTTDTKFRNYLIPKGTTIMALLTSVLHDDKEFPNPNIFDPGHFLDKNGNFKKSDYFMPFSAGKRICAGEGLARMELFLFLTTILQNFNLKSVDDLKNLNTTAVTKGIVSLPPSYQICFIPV
From the text: as §1

CYP3A4 [5] = molecular target: T1, CYP3A4; assay: Metabolism kinetics with recombinant CYP3A4; assay type: in vitro ADME; parameters: purchased ADMESCOPE, Finland; conditions: used initial concentrations; Km and Vmax could not be fitted
From the text: as §1

[6] = before accounting for biliary and renal clearance

T1 sequence (P08684 whole entry): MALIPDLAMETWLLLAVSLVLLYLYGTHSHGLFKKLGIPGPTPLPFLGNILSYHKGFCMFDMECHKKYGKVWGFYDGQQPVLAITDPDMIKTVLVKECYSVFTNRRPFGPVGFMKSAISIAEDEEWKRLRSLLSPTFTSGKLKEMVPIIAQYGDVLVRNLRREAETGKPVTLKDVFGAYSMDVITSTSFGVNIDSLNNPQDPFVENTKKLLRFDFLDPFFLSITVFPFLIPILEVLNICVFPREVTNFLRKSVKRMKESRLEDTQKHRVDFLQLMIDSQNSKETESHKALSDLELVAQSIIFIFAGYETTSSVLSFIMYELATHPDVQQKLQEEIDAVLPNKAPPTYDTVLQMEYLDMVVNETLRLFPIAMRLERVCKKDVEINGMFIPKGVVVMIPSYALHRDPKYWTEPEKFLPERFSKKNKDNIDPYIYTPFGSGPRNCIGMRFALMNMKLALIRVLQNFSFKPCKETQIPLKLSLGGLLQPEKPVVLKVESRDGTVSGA

CLint, CYP3A4 (CYP3A4 [1]; PBPK model input, calculated from estimated fm and mean CL/F): 0.0097 µL/min/pmol | share of metabolism, CYP3A4 (CYP3A4 [1]; [6]): 30% | renal clearance fraction (fe) ([2]; PBPK model): 5% | CLint, additional ([2]; PBPK model input): 0.281 µL/min/mg | share of metabolism, undefined metabolism [2, 6]: 6% | Kp ([3]; CSF and plasma (unbound), 17 mg/kg, unbound CSF Cmax / unbound plasma Cmax, read-out: Kpu, u based on CSF): 0.25 | AUC ([3]; plasma, 17 mg/kg single dose, read-out: Total plasma AUC): 102 µg·h/mL | Cmax ([3]; plasma, 17 mg/kg single dose, read-out: Total plasma Cmax): 21100 ng/mL | CSF Cmax ([3]; 17 mg/kg single dose): 274 ng/mL | Total brain AUC ([3]; 17 mg/kg single dose): 6.582 µg·h/mL | Total brain Cmax ([3]; 17 mg/kg single dose): 1337.6 ng/mL | Kpu, u based on CSF ([3]; 17 mg/kg, unbound CSF Cmax / unbound plasma Cmax): 0,25 | unbound brain concentration ([3]; efficacious dose of 17 mg/kg, single dose): 175 ng/mL | B:P [4]: 0.73 | fugut [4]: 1 | fraction unbound ([4]; human, plasma): 0.04 | contribution of CYP2C8, fraction metabolized (CYP2C8): around 70% | saturation of metabolism by recombinant CYP3A4 (CYP3A4 [5]): did not saturate
SMILES: CC(O)c1ccc(CCOc2ccc(CC3SC(=O)NC3=O)cc2)nc1 (stereo not drawn) [Leriglitazone, 5-[[4-[2-[5-(1-hydroxyethyl)pyridin-2-yl]ethoxy]phenyl]methyl]-1,3-thiazolidine-2,4-dione]
